Measurements taken from ChEMBL document CHEMBL1149970, “Novel dithiocarbamate carbapenems1 with anti-MRSA activity” (Bioorg Med Chem Lett, 1997).
Values after ≈ are worked out from the molar mass of the structure shown.

Tests used:
[1] = test system: Staphylococcus aureus; test: In vitro antibacterial activity against staphylococcus aureus 209P NIHJ JC1 organism; format: functional
[2] = test system: Enterococcus faecalis; test: In vitro antibacterial activity against Enterococcus faecalis MB4996 organism; format: functional
[3] = target: T1, Dipeptidase 1 (Sus scrofa) (UniProt P22412); test: Relative rate of hydrolysis of porcine renal dehydropeptidase-I (DHP-I) to imipenem; format: functional
T1 sequence (whole entry): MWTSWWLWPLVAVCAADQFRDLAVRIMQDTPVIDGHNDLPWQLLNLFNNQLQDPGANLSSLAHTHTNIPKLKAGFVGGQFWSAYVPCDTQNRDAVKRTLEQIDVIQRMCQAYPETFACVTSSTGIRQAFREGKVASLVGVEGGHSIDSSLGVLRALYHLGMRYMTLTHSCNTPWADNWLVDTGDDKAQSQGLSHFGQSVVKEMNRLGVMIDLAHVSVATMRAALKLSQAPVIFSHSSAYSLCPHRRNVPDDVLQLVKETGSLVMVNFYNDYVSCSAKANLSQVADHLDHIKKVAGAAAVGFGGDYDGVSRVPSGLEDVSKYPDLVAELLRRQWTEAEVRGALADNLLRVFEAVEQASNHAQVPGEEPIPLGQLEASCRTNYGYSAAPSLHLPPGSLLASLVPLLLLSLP

[4] = test system: Staphylococcus aureus; test: In vitro antibacterial activity against staphylococcus aureus CSa1009 (Methicillin-resistant strain and b beta-Lactamase producing strain); format: functional
[5] = test system: Staphylococcus aureus; test: In vitro antibacterial activity against staphylococcus aureus BB6294 organism (Methicillin-resistant strain); format: functional
[6] = test system: Escherichia coli; test: In vitro antibacterial activity against Escherichia coli NIHJ JC2 organism; format: functional
[7] = test system: Staphylococcus aureus; test: Compound was tested in vitro for its anti-methicillin-resistant staphylococcus aureus(MRSA); 0.78-3.13; format: functional
[8] = target: T1, Dipeptidase 1 (Sus scrofa); test: Compound was measured for DHP-I susceptibility; format: functional
[9] = Compound was measured for binding rate for human serum at a carbapenem concentration of 10 ug/mL; format: ADME; conditions: read-out: Protein binding (converted)
[10] = test system: Pseudomonas aeruginosa; test: In vitro antibacterial activity against Pseudomonas aeruginosa MB5002 organism; format: functional
[11] = test system: Rattus norvegicus; test: Epileptogenicity of compound was measured at 100 ug/rat head by the rat intraventricular assay; 0/5; format: functional, Cerebral ventricle
[12] = species: Mus musculus; test: Compound was measured for binding rate for mouse serum at a carbapenem concentration of 10 ug/mL; format: functional
[13] = test system: Staphylococcus aureus; test: Compound was tested in vivo for its anti-methicillin-resistant staphylococcus aureus(MRSA); format: functional
[14] = test system: Staphylococcus epidermidis; test: In vitro antibacterial activity against Staphylococcus epidermidis MB5181a organism; format: functional; conditions: Staphylococcus epidermidis; read-out: MIC
[15] = test system: Staphylococcus aureus; test: PBP-2'' affinity was determined by the competition assay with [14C]benzylpenicillin using membrane isolated from MRSA BB6294 strain; format: functional

| Structure (SMILES) | MIC [1] | MIC [2] | DHP-I susceptibility [3] | MIC [4] | MIC [5] | MIC [6] | MIC [7] | DHP-I susceptibility [8] | fraction unbound at 10 ug/mL [9] | MIC [10] | Epileptogenicity [11] | PPB [12] | ED50 [13] | MIC [14] | IC50 [15] | ED50 ([13]; Staphylococcus aureus) |
| --- | --- | --- | --- | --- | --- | --- | --- | --- | --- | --- | --- | --- | --- | --- | --- | --- |
| C[C@@H](O)[C@H]1C(=O)N2C(C(=O)O)=C(SC(=S)N(C)Cc3cccc4ccccc34)[C@H](C)[C@H]12 | < 0.006 µg/mL | 1.56 µg/mL (≈ 3.42 µM) | 4.41 | 1.56 µg/mL (≈ 3.42 µM) | 0.78 µg/mL (≈ 1.71 µM) | 25 µg/mL (≈ 54.8 µM) | 1.15 µg/mL (≈ 2.52 µM) | 4.41 | 0.01 | > 25 µg/mL | 0 | 99% | > 50 mg/kg | 0.39 µg/mL (≈ 0.854 µM) | – | – |
| C[C@@H](O)[C@H]1C(=O)N2C(C(=O)O)=C(SCCNC=N)C[C@H]12 [IMIPENEM ANHYDROUS] | < 0.006 µg/mL | 0.78 µg/mL (≈ 2.61 µM) | 1 | 100 µg/mL (≈ 334 µM) | 100 µg/mL (≈ 334 µM) | 0.1 µg/mL (≈ 0.334 µM) | – | – | – | 1.56 µg/mL (≈ 5.21 µM) | – | – | – | 100 µg/mL (≈ 334 µM) | 125 µg/mL (≈ 418 µM) | > 200 mg/kg |
